Measurements taken from patent publication US12660819B2, “Herbicidal derivatives” (SYNGENTA CROP PROTECTION AG, priority 2020, dated 2026).

Assays:
Format in all cases: in vivo
Setaria faberi (SETFA) [1] = assay: Pre-emergence Test (glasshouse, percentage damage to the plant); conditions: 1000 g/ha unless otherwise stated, five-point scale
[2] = system: Amaranthus retoflexus (AMARE); assay: as above; conditions: 1000 g/ha unless otherwise stated, five-point scale
[3] = system: Ipomoea hederacea (IPOHE); assay: Post-emergence Test (glasshouse, percentage damage to the plant); conditions: post-emergence spray, 1000 g/ha unless otherwise stated, evaluated after 13 days
In short: (§1)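 After sowing in standard soil, pots were kept at 24/16 °C (day/night), 14 h light and 65% humidity. They were sprayed at 1000 g/ha unless otherwise stated, watered twice daily, and assessed for percentage damage at 13 days on a 1–5 scale.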

Setaria faberi (SETFA) [4] = assay: as above; conditions: post-emergence spray, 1000 g/ha unless otherwise stated, evaluated after 13 days
In short: as §1

Zea mays (ZEAMX) [5] = assay: as above; conditions: post-emergence spray, 1000 g/ha unless otherwise stated, evaluated after 13 days
In short: as §1

[6] = system: Echinochloa crus-galli (ECHCG); assay: as above; conditions: post-emergence spray, 1000 g/ha unless otherwise stated, evaluated after 13 days
In short: (§2)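 Scored 13 days after spraying as percentage plant damage in five bands (5=81–100%, 4=61–80%, 3=41–60%, 2=21–40%, 1=0–20%). Spray at 1000 g/ha unless stated, in acetone/water 50:50 plus 0.5% Tween 20, onto sown glasshouse pots (24/16 °C, 14 h light, 65% humidity).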

[7] = system: Abutilon theophrasti (ABUTH); assay: as above; conditions: post-emergence spray, 1000 g/ha unless otherwise stated, evaluated after 13 days
In short: as §2

[8] = system: Amaranthus retoflexus (AMARE); assay: as above; conditions: post-emergence spray, 1000 g/ha unless otherwise stated, evaluated after 13 days
In short: as §2

Zea mays (ZEAMX) [9] = assay: Pre-emergence Test (glasshouse, percentage damage to the plant); conditions: 1000 g/ha unless otherwise stated, five-point scale
[10] = system: Abutilon theophrasti (ABUTH); assay: as above; conditions: 1000 g/ha unless otherwise stated, five-point scale
[11] = system: Echinochloa crus-galli (ECHCG); assay: as above; conditions: 1000 g/ha unless otherwise stated, five-point scale
[12] = system: Ipomoea hederacea (IPOHE); assay: as above; conditions: 1000 g/ha unless otherwise stated, five-point scale

| SMILES | percentage damage to the plant, SETFA (Setaria faberi (SETFA) [1]) | percentage damage to the plant, AMARE [2] | Post-emergence Test IPOHE, percentage damage to the plant (five-point scale) [3] | Post-emergence Test SETFA, percentage damage to the plant (five-point scale) (Setaria faberi (SETFA) [4]) | Post-emergence Test ZEAMX, percentage damage to the plant (five-point scale) (Zea mays (ZEAMX) [5]) | Post-emergence Test ECHCG, percentage damage to the plant (five-point scale) [6] | Post-emergence Test ABUTH, percentage damage to the plant (five-point scale) [7] | Post-emergence Test AMARE, percentage damage to the plant (five-point scale) [8] | percentage damage to the plant, ZEAMX (Zea mays (ZEAMX) [9]) | percentage damage to the plant, ABUTH [10] | percentage damage to the plant, ECHCG [11] | percentage damage to the plant, IPOHE [12] |
| --- | --- | --- | --- | --- | --- | --- | --- | --- | --- | --- | --- | --- |
| CCn1c(C)c(-c2cccs2)c(=O)c(C(=O)O)c1-c1ccc(Cl)c(Cl)c1 [Compound 74, 2-(3,4-dichlorophenyl)-1-ethyl-6-methyl-4-oxo-5-(2-thienyl)pyridine-3-carboxylic acid] | 4 (4=61-80%) | 1 (1=0-20%) | 2 (2=21-40%) | 3 (3=41-60%) | 2 (2=21-40%) | 3 (3=41-60%) | 3 (3=41-60%) | 1 (1=0-20%) | 1 (1=0-20%) | 2 (2=21-40%) | 3 (3=41-60%) | 1 (1=0-20%) |
| CCn1c(C)c(-c2cc(F)c(OC)c(Cl)c2)c(=O)c(C(=O)O)c1-c1ccc(Cl)c(Cl)c1 [Compound 75, 5-(3-chloro-5-fluoro-4-methoxy-phenyl)-2-(3,4-dichlorophenyl)-1-ethyl-6-methyl-4-oxo-pyridine-3-carboxylic acid] | 1 (1=0-20%) | 1 (1=0-20%) | 2 (2=21-40%) | 1 (1=0-20%) | 1 (1=0-20%) | 1 (1=0-20%) | 2 (2=21-40%) | 1 (1=0-20%) | 1 (1=0-20%) | 1 (1=0-20%) | 1 (1=0-20%) | 1 (1=0-20%) |
| CCn1c(C)c(-c2ccc(C(F)F)cc2)c(=O)c(C(=O)O)c1-c1ccc(Cl)c(Cl)c1 [Compound 76, 2-(3,4-dichlorophenyl)-5-[4-(difluoromethyl)phenyl]-1-ethyl-6-methyl-4-oxo-pyridine-3-carboxylic acid] | 3 (3=41-60%) | 1 (1=0-20%) | 2 (2=21-40%) | 3 (3=41-60%) | 1 (1=0-20%) | 2 (2=21-40%) | 3 (3=41-60%) | 1 (1=0-20%) | 1 (1=0-20%) | 2 (2=21-40%) | 1 (1=0-20%) | 2 (2=21-40%) |
| CCn1c(C)c(-c2cc(F)cc(C#N)c2)c(=O)c(C(=O)O)c1-c1ccc(Cl)c(Cl)c1 [Compound 78, 5-(3-cyano-5-fluoro-phenyl)-2-(3,4-dichlorophenyl)-1-ethyl-6-methyl-4-oxo-pyridine-3-carboxylic acid] | 4 (4=61-80%) | 2 (2=21-40%) | 1 (1=0-20%) | 3 (3=41-60%) | 1 (1=0-20%) | 2 (2=21-40%) | 2 (2=21-40%) | 1 (1=0-20%) | 1 (1=0-20%) | 1 (1=0-20%) | 3 (3=41-60%) | 2 (2=21-40%) |
| CCn1c(C)c(-c2cc(F)cc(F)c2)c(=O)c(C(=O)O)c1-c1ccc(Cl)c(Cl)c1 [Compound 79, 2-(3,4-dichlorophenyl)-5-(3,5-difluorophenyl)-1-ethyl-6-methyl-4-oxo-pyridine-3-carboxylic acid] | 5 (5=81-100%) | 3 (3=41-60%) | 2 (2=21-40%) | 2 (2=21-40%) | 1 (1=0-20%) | 1 (1=0-20%) | 2 (2=21-40%) | 1 (1=0-20%) | 2 (2=21-40%) | 3 (3=41-60%) | 1 (1=0-20%) | 2 (2=21-40%) |
| CCn1c(C)c(-c2cc(C)cc(C#N)c2)c(=O)c(C(=O)O)c1-c1ccc(Cl)c(Cl)c1 [Compound 80, 5-(3-cyano-5-methyl-phenyl)-2-(3,4-dichlorophenyl)-1-ethyl-6-methyl-4-oxo-pyridine-3-carboxylic acid] | 4 (4=61-80%) | 1 (1=0-20%) | 1 (1=0-20%) | 3 (3=41-60%) | 1 (1=0-20%) | 1 (1=0-20%) | 3 (3=41-60%) | 3 (3=41-60%) | 1 (1=0-20%) | 1 (1=0-20%) | 1 (1=0-20%) | 1 (1=0-20%) |
| CCn1c(C)c(-c2ccc(OC)c(C(F)(F)F)c2)c(=O)c(C(=O)O)c1-c1ccc(Cl)c(Cl)c1 [Compound 81, 2-(3,4-dichlorophenyl)-1-ethyl-5-[4-methoxy-3-(trifluoromethyl)phenyl]-6-methyl-4-oxo-pyridine-3-carboxylic acid] | 4 (4=61-80%) | 1 (1=0-20%) | 2 (2=21-40%) | 3 (3=41-60%) | 1 (1=0-20%) | 3 (3=41-60%) | 3 (3=41-60%) | 2 (2=21-40%) | 1 (1=0-20%) | 1 (1=0-20%) | 1 (1=0-20%) | 1 (1=0-20%) |
| CCn1c(C)c(-c2cc(Cl)cc(C(F)(F)F)c2)c(=O)c(C(=O)O)c1-c1ccc(Cl)c(Cl)c1 [Compound 82, 5-[3-chloro-5-(trifluoromethyl)phenyl]-2-(3,4-dichlorophenyl)-1-ethyl-6-methyl-4-oxo-pyridine-3-carboxylic acid] | 2 (2=21-40%) | 2 (2=21-40%) | 1 (1=0-20%) | 1 (1=0-20%) | 1 (1=0-20%) | 1 (1=0-20%) | 2 (2=21-40%) | 1 (1=0-20%) | 1 (1=0-20%) | 1 (1=0-20%) | 1 (1=0-20%) | 1 (1=0-20%) |
| CCn1c(C)c(-c2ccc(Cl)c(C(=O)NC3CC3)c2)c(=O)c(C(=O)O)c1-c1ccc(Cl)c(Cl)c1 [Compound 83, 5-[4-chloro-3-(cyclopropylcarbamoyl)phenyl]-2-(3,4-dichlorophenyl)-1-ethyl-6-methyl-4-oxo-pyridine-3-carboxylic acid] | 1 (1=0-20%) | 1 (1=0-20%) | 1 (1=0-20%) | 2 (2=21-40%) | 1 (1=0-20%) | 1 (1=0-20%) | 2 (2=21-40%) | 1 (1=0-20%) | 1 (1=0-20%) | 1 (1=0-20%) | 1 (1=0-20%) | 1 (1=0-20%) |
